Experimental data from patent US7687643B2, “Process for preparing 3,3-dimethylindolines” (Amgen Inc., priority 2001, dated 2010).

These molecules were tested on Human Umbilical Vein Endothelial cells (VEGF-stimulated) (assay: HUVEC proliferation assay, VEGF-stimulated). Conditions: VEGF 50 ng/mL, 72 h, CyQuant, read-out: inhibited VEGF-stimulated HUVEC proliferation at a level.
Assay type: cell-based
How it was run: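 Pooled-donor HUVECs (passage 2–3) seeded in DMEM+10% FBS for 22 h, then pre-treated 2–3 h with five-point, five-fold compound dilutions (0.25% DMSO final). Stimulated with 50 ng/mL VEGF (bFGF 20 ng/mL on separate plates) for 72 h at 37 °C. CyQuant fluorescence (485/530 nm) after freeze-thaw; IC50 from 4-parameter fit.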

Row | SMILES | IC50 [nM]
1 | CNc1nccc(CNc2ncccc2C(=O)Nc2cc(O[C@@H]3CCOC3)cc(C(F)(F)F)c2)n1 [Example 1084, 2-(((2-(methylamino)-4-pyrimidinyl)methyl)amino)-N-(3-((3R)-tetrahydro-3-furanyloxy)-5-(trifluoromethyl)phenyl)-3-pyridinecarboxamide] | < 50
2 | O=C(Nc1cccc(C(F)(F)F)c1)c1cccnc1NCc1ccncc1 [Example 82, 2-[(Pyridin-4-ylmethyl)-amino]-N-(3-trifluoromethyl-phenyl)-nicotinamide] | < 50
3 | CS(=O)(=O)Nc1cc(NC(=O)c2cccnc2NCc2ccncc2)cc(C(F)(F)F)c1 [Example 1095, N-(3-((methylsulfonyl)amino)-5-(trifluoromethyl)phenyl)-2-((4-pyridinylmethyl)amino)-3-pyridinecarboxamide] | < 50
4 | CCN1CCC(C)(C)c2ccc(NC(=O)c3cccnc3NCc3ccncc3)cc21 [Example 1124, N-(1-Ethyl-4,4-dimethyl-1,2,3,4-tetrahydro-quinolin-7-yl)-2-[(pyridin-4-ylmethyl)-amino]-nicotinamide] | < 50
5 | CNc1nccc(CNc2ncccc2C(=O)Nc2ccc3c(c2)N(C(=O)CN(C)C)CC3(C)C)n1 [Example 1039, N-(1-(N,N-Dimethylglycyl)-3,3-dimethyl-2,3-dihydro-1H-indol-6-yl)-2-(((2-(methylamino)-4-pyrimidinyl)methyl)amino)-3-pyridinecarboxamide] | < 50
6 | COc1cc(CNc2ncccc2C(=O)Nc2ccc3c(c2)NCC3(C)C)ccn1 [Example 1000, N-(3,3-dimethyl-2,3-dihydro-1H-indol-6-yl)-2-[(2-methoxy-pyridin-4-ylmethyl)-amino]-nicotinamide] | < 50
7 | COc1cc(CNc2ncccc2C(=O)Nc2ccc3c(c2)CNCC32CC2)ccn1 [Example 1128, N-(4-Spiro-1′-cyclopropane-1,2,3,4-tetrahydroisoquinolin-7-yl)-2-[(2-methoxy-pyridin-4-ylmethyl)-amino]-nicotinamide] | < 50
8 | O=C(Nc1ccc(C(F)(F)F)cc1)c1cccnc1NCc1ccncc1 [Example 165, {2-[(4-Pyridylmethyl)amino](3-pyridyl)}-N-[4-(trifluoromethyl)phenyl]carboxamide] | < 50
9 | CNc1nccc(CNc2ncccc2C(=O)Nc2cc(NC(=O)O[C@H]3CCOC3)cc(C(F)(F)F)c2)n1 [Example 1089, (3S)-tetrahydro-3-furanyl 3-(((2-(((2-(methylamino)-4-pyrimidinyl)methyl)amino)-3-pyridinyl)carbonyl)amino)-5-(trifluoromethyl)phenylcarbamate] | < 50
10 | CN(C)CCOCCOc1cc(CNc2ncccc2C(=O)Nc2ccc(C(C)(C)C)cc2)ccn1 [Example 151, (2-{[(2-{2-[2-(Dimethylamino)ethoxy]ethoxy}(4-pyridyl))methyl]amino}(3-pyridyl))-N-[4-(tert-butyl)phenyl]carboxamide] | < 50
11 | CC1(C)CNCc2cc(NC(=O)c3cccnc3NCc3ccnc4c3CCN4)ccc21 [Example 1147, 2-[(2,3-Dihydro-1H-pyrrolo[2,3-b]pyridin-4-ylmethyl)-amino]-N-(4,4-dimethyl-1,2,3,4-tetrahydro-isoquinolin-7-yl)-nicotinamide] | < 50
12 | CNc1nccc(CNc2ncccc2C(=O)Nc2cc(OC[C@H]3CCCN3C(C)=O)cc(C(F)(F)F)c2)n1 [Example 1085, N-(3-((((2R)-1-acetyl-2-pyrrolidinyl)methyl)oxy)-5-(trifluoromethyl)phenyl)-2-(((2-(methylamino)-4-pyrimidinyl)methyl)amino)-3-pyridinecarboxamide] | < 50
13 | CNc1cc(CNc2ncccc2C(=O)Nc2ccc3c(c2)NCC32CC2)ccn1 [Example 1107, N-(1,2-dihydroindol-3-spiro-1′-cyclopropane-6-yl)-2-[(2-methylaminopyridin-4-ylmethyl)-amino]-nicotinamide] | < 50
14 | O=C(Nc1ccc(Cl)cc1)c1ncccc1NCc1ccc2ncccc2c1 [Example 7, N-(4-Chlorophenyl){3-[(6-quinolylmethyl)amino](2-pyridyl)}carboxamide] | < 50
15 | CNc1nccc(CNc2ncccc2C(=O)Nc2ccc3c(c2)NCCC3(C)C)n1 [Example 1112, N-(4,4-Dimethyl-1,2,3,4-tetrahydro-quinolin-7-yl)-2-[(2-methylamino-pyrimidin-4-ylmethyl)-amino]-nicotinamide] | < 50
16 | CNc1nccc(CNc2ncccc2C(=O)Nc2ccc3c(c2)NC(=O)CC3(C)C)n1 [Example 1115, N-(4,4-Dimethyl-2-oxo-1,2,3,4-tetrahydro-quinolin-7-yl)-2-[(2-methylamino-pyrimidin-4-ylmethyl)-amino]-nicotinamide] | < 50
17 | O=C(Nc1ccc(C(OC[C@@H]2CCCN2)(C(F)(F)F)C(F)(F)F)cc1)c1cccnc1NCc1ccncc1 [Example 1141, 2-[(Pyridin-4-ylmethyl)-amino]-N-{4-[2,2,2-trifluoro-1-(pyrrolidin-2-ylmethoxy)-1-trifluoromethyl-ethyl]-phenyl}-nicotinamide] | < 50

Row | SMILES | IC50 [nM]
18 | CC(C)c1ccc(NC(=O)c2cccnc2NCc2ccc3ocnc3c2)cc1 [Example 1120, 2-((1,3-Benzoxazol-5-ylmethyl)amino)-N-(4-(1-methylethyl)phenyl)-3-pyridinecarboxamide] | < 50
19 | CS(=O)(=O)NCCOc1cc(NC(=O)c2cccnc2NCc2ccncc2)cc(C(F)(F)F)c1 [Example 1090, N-(3-((2-((methylsulfonyl)amino)ethyl)oxy)-5-(trifluoromethyl)phenyl)-2-((4-pyridinylmethyl)amino)-3-pyridinecarboxamide] | < 50
20 | O=C(Nc1ccc(-c2ccccc2)cc1)c1cccnc1NCc1ccncc1 [Example 159, N-(4-Biphenyl){2-[(4-pyridylmethyl)amino](3-pyridyl)}carboxamide] | < 50
21 | CCOC(=O)N1CC2(CC2)c2ccc(NC(=O)c3cccnc3NCc3ccnc(NC)c3)cc21 [Example 1106, Ethyl [1,2-dihydro-6-({2-[(2-methylamino-pyridin-4-ylmethyl)-amino]-pyridine-3-carbonyl}-amino)-3-spiro-1′-cyclopropyl-1H-indole]-1-carbamate] | < 50
22 | O=C(Nc1cccc(C(F)(F)F)c1)c1cccnc1NCc1ccc2ncccc2c1 [Example 169, {2-[(6-Quinolylmethyl)amino](3-pyridyl)}-N-[3-(trifluoromethyl)phenyl]carboxamide] | < 50
23 | CC1(C)CNCc2cc(NC(=O)c3cccnc3NCc3ccnc4ccccc34)ccc21 [Example 1192, N-(4,4-Dimethyl-1,2,3,4-tetrahydro-isoquinolin-7-yl)-2-[(quinolin-4-ylmethyl)-amino]-nicotinamide] | < 50
24 | COC(=O)C(C)(C)c1ccc(NC(=O)c2cccnc2NCc2ccncc2)cc1 [Example 985, 2-Methyl-2-[4-({2-[(pyridin-4-ylmethyl)-amino]-pyridine-3-carbonyl}-amino)-phenyl]-propionic acid methyl ester] | < 50
25 | CNc1nccc(CNc2ncccc2C(=O)Nc2ccc3c(c2)NCC3(C)C)n1 [Example 1040, N-(3,3-Dimethyl-2,3-dihydro-1H-indol-6-yl)-2-(((2-(methylamino)-4-pyrimidinyl)methyl)amino)-3-pyridinecarboxamide] | < 50
26 | CS(=O)(=O)NCCOc1cc(NC(=O)c2cccnc2NCc2ccncc2)ccc1C(F)(F)C(F)(F)F [Example 1031, N-(3-((2-((Methylsulfonyl)amino)ethyl)oxy)-4-(pentafluoroethyl)phenyl)-2-((4-pyridinylmethyl)amino)-3-pyridinecarboxamide] | < 50
27 | CN1CC(C)(C)c2ccc(NC(=O)c3cccnc3NCc3ccncc3)cc21 [Example 1184, 2-[(Pyridin-4-ylmethyl)-amino]-N-(1,3,3-trimethyl-2,3-dihydro-1H-indol-6-yl)-nicotinamide] | < 50
28 | CC1(C)CNc2cc(NC(=O)c3cccnc3NCc3ccncc3)ccc21 [Example 133, N-(3,3-Dimethylindolin-6-yl){2-[(4-pyridylmethyl)amino](3-pyridyl)}carboxamide] | < 50
29 | O=C(Nc1cc(NC(=O)c2cccnc2NCc2ccncn2)cc(C(F)(F)F)c1)O[C@H]1CCOC1 [Example 1086, (3S)-tetrahydro-3-furanyl 3-(((2-((4-pyrimidinylmethyl)amino)-3-pyridinyl)carbonyl)amino)-5-(trifluoromethyl)phenylcarbamate] | < 50
30 | CC1(C)CNCc2cc(NC(=O)c3cccnc3NCc3ccnc4[nH]ccc34)ccc21 [Example 1145, N-(4,4-Dimethyl-1,2,3,4-tetrahydro-isoquinolin-7-yl)-2-[(1H-pyrrolo[2,3-b]pyridin-4-ylmethyl)-amino]-nicotinamide] | < 50
31 | CN1CCC(CCCOc2cc(CNc3ncccc3C(=O)Nc3ccc(C(C)(C)C)cc3)ccn2)CC1 [Example 924, 2-({2-[3-(1-Methyl-piperidin-4-yl)-propoxy]-pyridin-4-ylmethyl}-amino)-N-(4-tert-butyl-phenyl)-nicotinamide] | < 50
32 | CNc1nccc(CNc2ncccc2C(=O)Nc2ccc3c(n2)NC(=O)CC3(C)C)n1 [Example 1135, N-(5,5-Dimethyl-7-oxo-5,6,7,8-tetrahydro-[1,8]naphthyridin-2-yl)-2-[(2-methylamino-pyrimidin-4-ylmethyl)-amino]-nicotinamide] | < 50
33 | O=C(Nc1ccc(C(F)(F)F)c(OCCN2CCCC2)c1)c1cccnc1NCc1ccncn1 [Example 1024, 2-((4-Pyrimidinylmethyl)amino)-N-(3-((2-(1-pyrrolidinyl)ethyl)oxy)-4-(trifluoromethyl)phenyl)-3-pyridinecarboxamide] | < 50
34 | CC1(C)CNc2cc(NC(=O)c3cccnc3NCc3ccnc4ccccc34)ccc21 [Example 1023, N-(3,3-Dimethyl-2,3-dihydro-1H-indol-6-yl)-2-((4-quinolinylmethyl)amino)-3-pyridinecarboxamide] | < 50
